Assay results taken from article PMC9781958, “Next-Generation Heterocyclic Electrophiles as Small-Molecule Covalent MurA Inhibitors” (Pharmaceuticals, 2022).
Where two headings read alike, the source gives them in different places.

What was measured:
[1] = target: T1, E. coli MurA (UDP-N-acetylglucosamine 1-carboxyvinyltransferase, EC:2.5.1.7) (Escherichia coli, UniProt P0A749); experiment: MurA inhibitory assay (colorimetric malachite green method); format: biochemical; parameters: inferred from IMAC purification with imidazole elution; made in house; host or cells: Escherichia coli NiCo21(DE3); details: for IC50 [μM] MurA: Figure 1, methylated library, 30 min preincubation; for remaining activity at 100 µM: 0.5 h, read-out: RA% @ 100 μM MurA 30 min preincubation
Method: Expression and purification of E. coli MurA (UDP-N-acetylglucosamine 1-carboxyvinyltransferase, EC:2.5.1.7) was performed according to the known procedure. Briefly, the MurA plasmid was used to transform chemically competent Escherichia coli NiCo21(DE3) (New England Biolabs, Ipswich, MA, USA). The transformant was cultured at 37 °C and 250 rpm in LB broth. Expression was induced by addition of 1 mM IPTG and cultured for an additional 3 h. Cells were harvested by centrifugation (3000× g for 10 min at 4 °C), and cell pellets were stored at −80 °C until purification. Cell pellets were resuspended in buffer 50 mM Tris (pH 8), 150 mM NaCl, and 10 % glycerol and lysed on ice by sonication. Cell debris was removed by centrifugation for 30 min (16,000× g, 4 °C, repeated twice). The lysate was loaded onto a HiTrap 1 mL IMAC HP column (Cytiva, Marlborough, MA, USA). The column was washed with buffer containing 50 mM imidazole with 20 column volumes, and the protein was eluted with buffer containing 250 mM imidazole. The eluted MurA was exchanged into proprietary buffer (50 mM Tris (pH 8), 150 mM NaCl, 10 % glycerol).
The inhibition of the MurA enzyme was monitored using the colorimetric malachite green method in which orthophosphate generated during the reaction is detected. The assay was performed in 96-well microplates with a final volume of 50 μL. The MurA enzyme was preincubated with the substrate UNAG (UDP-N-acetylglucosamine, Sigma, St. Louis, MO, USA) and compound for 30 min at 37 °C. […] After incubation for 15 min at 37 °C, the enzyme reaction was ended by adding Biomol® reagent (100 µL), and the absorbance was measured at 650 nm after 5 min using a microplate reader (Synergy H4, BioTek Instruments, Inc., Winooski, VT, USA). All of the experiments were run in duplicate. […] IC50 values were determined by measuring residual activities at 7 different compound concentrations and calculated using GraphPad Prism (GraphPad Software, San Diego, CA, USA).

MurA = MurA (Escherichia coli, UniProt P0A749); experiment: MurA covalent labelling, intact MS; format: binding, E. coli; details: 5 mM fragment, 37 °C, 60 min (Figure S1)
Method: The covalent labelling procedure was conducted as described earlier with slight modifications. First, 42 μM stock solution of MurA in 20 mM HEPES at pH 7.2–7.4 with 1 mM DTT (dithiothreitol, Sigma) was filtered through a G25 desalting column, and the medium was changed to 50 mM Tris with 0.005% Triton X-100 at pH 8.0. For the activation of the enzyme, 1 mg UNAG was added as a solid to reach 40 mM concentration, and the mixture was incubated at 37 °C for 30 min. Fragments were added from a 100 mM DMSO stock diluted in the labelling solution to 5 mM. The incubation was continued at 37 °C for an additional 60 min. After the labelling, the mixture was purified on a G25 desalting column.
The molecular weights of the conjugates were identified using a Triple-TOF 5600+ hybrid Q-TOF LC/MS/MS system (Sciex, Singapore, Woodlands) equipped with a Duo Spray Ion Source coupled with a Shimadzu Prominence LC20 UFLC (Shimadzu, Kyoto, Japan) system consisting of a binary pump, an autosampler, and a thermostated column compartment. Data acquisition and processing were performed using Analyst TF software version 1.7.1 (AB Sciex Instruments, Redwood City, CA, USA). Chromatographic separation was achieved on a Thermo BetaBasic C8 (50 mm × 2.1 mm, 3 μm, 150 Å) HPLC column. […]

[2] = NMR-based single-point GSH reactivity assay; format: physicochemical; details: pH 7.4, 1H NMR
Method: For the NMR assay, a 500 mM D2O stock solution was first prepared for each fragment along with an 800 mM D2O stock solution of GSH. Thereafter, a 5 mM electrophilic standard solution was prepared by adding 20 μL of stock solution to a 2 mL 100 mM potassium hydrogen phosphate/sodium hydrogen phosphate buffer solution (pH 7.4). A total of 0.5 mL of this electrophilic standard solution was placed in an NMR tube, and then the ^1H NMR was recorded. The peak values obtained during the measurement were considered the zero-point measurement or reference peaks of the reactivity study. For the reactivity measurement, 20 μL of the fragment stock solution was added to 1980 μL phosphate buffer solution (pH 7.4) along with 20 μL of GSH stock solution (final concentration = […] GSH and 5 mM fragment). The contents were vortexed until homogenization and were transferred to an NMR tube. The resulting mixture was analyzed by ^1H NMR measurements after 15 and 30 min, and 4 and 24 h. The AUC (area under the curve) values were determined via integration of the corresponding peaks in the NMR spectra.

[3] = target: T1, E. coli MurA (UDP-N-acetylglucosamine 1-carboxyvinyltransferase, EC:2.5.1.7); details: read-out: MurA IC50 (µM) Non-Methylated; first-generation non-methylated heterocycles; cited from earlier work
[4] = Table 1, methylated heterocycles, read-out: MurA IC50 (µM) Methylated

T1 sequence (P0A749 whole entry): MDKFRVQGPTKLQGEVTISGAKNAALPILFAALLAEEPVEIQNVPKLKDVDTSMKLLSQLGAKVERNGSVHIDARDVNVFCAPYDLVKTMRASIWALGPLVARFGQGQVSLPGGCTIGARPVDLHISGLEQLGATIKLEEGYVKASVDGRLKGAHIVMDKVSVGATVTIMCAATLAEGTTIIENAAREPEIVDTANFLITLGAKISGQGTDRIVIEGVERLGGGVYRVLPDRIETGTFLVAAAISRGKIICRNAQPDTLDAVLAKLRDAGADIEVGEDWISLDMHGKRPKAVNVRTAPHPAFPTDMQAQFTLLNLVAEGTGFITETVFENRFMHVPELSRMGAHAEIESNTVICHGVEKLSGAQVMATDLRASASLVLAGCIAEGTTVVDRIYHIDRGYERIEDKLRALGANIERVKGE
MurA, sequence (P0A749 whole entry, the tested form may be a part): as the sequence (P0A749 whole entry) above

C[n+]1cccnc1I [D3+]
IC50 [μM] MurA [1]: single-digit micromolar | IC50 [1, 4]: 2.99 µM | fold increase in MurA inhibitory potency of methylated versus non-methylated pair ([1]; from IC50 values of Table 1): 100 fold

C[n+]1ccsc1Br [R2+]
remaining activity at 100 µM [1]: 42.8%

C[n+]1ccc(I)cc1 [C3+]
covalent labelling of MurA by intact MS (MurA): single and double labelling on MurA | IC50 [μM] MurA [1]: single-digit micromolar | IC50 [1, 4]: 4.5 µM

C#Cc1cc[n+](C)cc1 [C6+]
IC50 [1, 4]: 64.7 µM

C#Cc1cnc[n+](C)c1 [F6+]
remaining activity at 100 µM [1]: 77.8%

C[n+]1ccccc1I [A3+]
IC50 [1]: 15.5 µM

C[n+]1cccnc1Cl [D1+]
remaining activity at 100 µM [1]: 99.1%

C#Cc1cccc[n+]1C [A6+]
IC50 [1]: 50 µM

C#Cc1nccc[n+]1C [D6+]
Single point GSH reactivity (% conversion in 15 min, 16 equiv. GSH) [2]: 100% | remaining activity at 100 µM [1]: 6.7%

C[n+]1ccccc1Cl [A1+]
IC50 [1]: 51.6 µM

Cn1cc[n+](C)c1I [H3+]
Single point GSH reactivity (% conversion in 15 min, 16 equiv. GSH) [2]: 100% | remaining activity at 100 µM [1]: 10.4% | IC50 [1, 4]: 10.2 µM

C[n+]1cccnc1Br [D2+]
remaining activity at 100 µM [1]: 98.2%

C[C@@H]1O[C@@H]1P(=O)(O)O [fosfomycin]
IC50 [3]: 0.25 ± 0.01 µM

C[n+]1ccoc1I [N3+]
Single point GSH reactivity (% conversion in 15 min, 16 equiv. GSH) [2]: 100% | remaining activity at 100 µM [1]: 1.2%
